Measurements taken from article PMC8041433 (Environmental Health Perspectives, 2021).
pIC50: −log10 of the molar value. “And” between values parts separate entries of the source, which are not always exact repeats. Identical values can stand only once. Counter-ions that a name gives are not always drawn. Like-named read-outs stand apart in the source and are kept apart here.

Legend:
recombinant human AChE [1] = target: T1, recombinant human AChE (Homo sapiens, UniProt P22303)
AChE in SH-SY5Y cells = AChE in SH-SY5Y cells (Homo sapiens, UniProt P22303); assay: cell-based; details: for IC50: IC50 (uM); for pIC50: read-out: IC50
Chain of AChE in SH-SY5Y cells (P22303 32-614): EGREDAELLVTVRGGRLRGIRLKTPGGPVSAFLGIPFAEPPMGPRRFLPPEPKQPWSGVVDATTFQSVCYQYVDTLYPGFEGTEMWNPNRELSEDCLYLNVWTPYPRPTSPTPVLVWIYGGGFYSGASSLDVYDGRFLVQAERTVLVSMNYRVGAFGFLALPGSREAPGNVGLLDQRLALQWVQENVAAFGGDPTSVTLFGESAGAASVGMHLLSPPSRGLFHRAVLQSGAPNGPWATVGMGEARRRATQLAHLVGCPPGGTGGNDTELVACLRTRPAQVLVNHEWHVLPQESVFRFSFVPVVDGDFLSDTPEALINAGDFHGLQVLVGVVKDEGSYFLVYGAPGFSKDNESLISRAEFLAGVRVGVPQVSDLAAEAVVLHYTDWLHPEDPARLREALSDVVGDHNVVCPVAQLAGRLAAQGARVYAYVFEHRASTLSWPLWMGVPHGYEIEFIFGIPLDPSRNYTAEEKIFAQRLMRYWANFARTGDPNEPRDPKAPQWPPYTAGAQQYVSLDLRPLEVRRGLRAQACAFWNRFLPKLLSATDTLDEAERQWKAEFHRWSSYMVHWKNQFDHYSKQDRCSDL

recombinant human AChE [2] = target: T1, recombinant human AChE; assay: biochemical; details: for IC50: IC50 (uM); for pIC50: read-out: IC50

T1 sequence (P22303 32-614): as above

Cc1ccc(CCn2c3c(c4cc(Cl)ccc42)CN(C)CC3)cn1 [Dorastine]
CC-v2 (curve classes) (recombinant human AChE [1]): 4
Efficacy (recombinant human AChE [1]): -6.925
IC50 (AChE in SH-SY5Y cells): 34.7 µM and 30.9 µM
CC-v2 (curve classes) (recombinant human AChE [2]): -2.4
Efficacy (recombinant human AChE [2]): -32.475
IC50 (recombinant human AChE [2]): 38.9 µM

CCCCOc1ccc(C(=O)CCN2CCCCC2)cc1 [Dyclonine hydrochloride]
CC-v2 (curve classes) (recombinant human AChE [1]): 4
Efficacy (recombinant human AChE [1]): 0
CC-v2 (curve classes) (AChE in SH-SY5Y cells): -2.1
IC50 (AChE in SH-SY5Y cells): 12.3 µM and 13.8 µM
CC-v2 (curve classes) (recombinant human AChE [2]): -2.2
Efficacy (recombinant human AChE [2]): -57.155
IC50 (recombinant human AChE [2]): 27.5 µM

CCOP(=S)(Oc1ccc([N+](=O)[O-])cc1)c1ccccc1 (stereo not shown) [EPN]
CC-v2 (curve classes) (recombinant human AChE [1]): -1.1
Efficacy (recombinant human AChE [1]): -95.341
CC-v2 (curve classes) (AChE in SH-SY5Y cells): 4
AChE inhibition (result in words) (recombinant human AChE [2]): did not show effects
CC-v2 (curve classes) (recombinant human AChE [2]): 4
Efficacy (recombinant human AChE [2]): 0

O=S1OC[C@@H]2[C@H](CO1)[C@]1(Cl)C(Cl)=C(Cl)[C@@]2(Cl)C1(Cl)Cl (stereo partly shown) [Endosulfan I]
CC-v2 (curve classes) (recombinant human AChE [1]): -3
Efficacy (recombinant human AChE [1]): -117.846
CC-v2 (curve classes) (AChE in SH-SY5Y cells): -1.1
CC-v2 (curve classes) (recombinant human AChE [2]): -1.1
Efficacy (recombinant human AChE [2]): -101.477

CN1C[C@H](C(=O)N[C@]2(C)O[C@@]3(O)[C@@H]4CCCN4C(=O)[C@H](Cc4ccccc4)N3C2=O)C=C2c3cccc4[nH]cc(c34)C[C@H]21 [Ergotamine D-tartrate]
CC-v2 (curve classes) (recombinant human AChE [1]): 4
Efficacy (recombinant human AChE [1]): 0
CC-v2 (curve classes) (AChE in SH-SY5Y cells): -1.1
IC50 (AChE in SH-SY5Y cells): 8.32 µM and 1.01 µM and 3.72 µM and 1.13 µM and 0.898 µM
IC50 (recombinant human AChE [2]): 29.5 µM and 5.67 µM

CC[n+]1c(-c2ccccc2)c2cc(N)ccc2c2ccc(N)cc21 [Ethidium bromide]
CC-v2 (curve classes) (recombinant human AChE [1]): 4
CC-v2 (curve classes) (AChE in SH-SY5Y cells): -2.1
IC50 (AChE in SH-SY5Y cells): 19.5 µM and 31.6 µM and 17.4 µM
CC-v2 (curve classes) (recombinant human AChE [2]): -2.2
IC50 (recombinant human AChE [2]): 30.9 µM and 79.3 µM

CCSCc1ccccc1OC(=O)NC [Ethiofencarb]
CC-v2 (curve classes) (recombinant human AChE [1]): 4
Efficacy (recombinant human AChE [1]): -27.523
CC-v2 (curve classes) (AChE in SH-SY5Y cells): -1.1 and -2.1
IC50 (AChE in SH-SY5Y cells): 10 µM and 17.8 µM
CC-v2 (curve classes) (recombinant human AChE [2]): -1.1
Efficacy (recombinant human AChE [2]): -87.381
IC50 (recombinant human AChE [2]): 20 µM

Oc1ccc(C(O)CNCCCCCCNCC(O)c2ccc(O)c(O)c2)cc1O (stereo not shown) [Hexoprenaline sulfate]
CC-v2 (curve classes) (recombinant human AChE [1]): 4
Efficacy (recombinant human AChE [1]): 0
IC50 (AChE in SH-SY5Y cells): 38.9 µM and 30.9 µM
CC-v2 (curve classes) (recombinant human AChE [2]): 4
Efficacy (recombinant human AChE [2]): 0

O=C(C[S+]([O-])Cc1ccco1)NC/C=C\COc1cc(CN2CCCCC2)ccn1 (stereo not shown) [Lafutidine]
CC-v2 (curve classes) (recombinant human AChE [1]): 4
Efficacy (recombinant human AChE [1]): 0
CC-v2 (curve classes) (AChE in SH-SY5Y cells): -2.1
IC50 (AChE in SH-SY5Y cells): 38.9 µM and 27.5 µM and 17.4 µM
CC-v2 (curve classes) (recombinant human AChE [2]): -2.2
Efficacy (recombinant human AChE [2]): -35.592
IC50 (recombinant human AChE [2]): 34.7 µM

C=CCN1CC[C@]23CCCC[C@H]2[C@H]1Cc1ccc(O)cc13 [Levallorphan]
CC-v2 (curve classes) (recombinant human AChE [1]): 4
Efficacy (recombinant human AChE [1]): 0
CC-v2 (curve classes) (AChE in SH-SY5Y cells): -2.1
CC-v2 (curve classes) (recombinant human AChE [2]): 4
Efficacy (recombinant human AChE [2]): -27.829

CCN(CC)C(=O)[C@@H]1C=C2c3cccc4[nH]cc(c34)C[C@H]2N(C)C1 [Lysergide]
CC-v2 (curve classes) (recombinant human AChE [1]): 4
Efficacy (recombinant human AChE [1]): -29.643
CC-v2 (curve classes) (AChE in SH-SY5Y cells): -2.1
IC50 (AChE in SH-SY5Y cells): 73.8 µM and 93 µM
CC-v2 (curve classes) (recombinant human AChE [2]): -2.2
Efficacy (recombinant human AChE [2]): -56.682
IC50 (recombinant human AChE [2]): 104 µM

COc1nn(CSP(=S)(OC)OC)c(=O)s1 [Methidathion]
CC-v2 (curve classes) (recombinant human AChE [1]): 4
IC50 (AChE in SH-SY5Y cells): 63.3 µM and 79.6 µM and 71 µM and 56.4 µM and 39.9 µM and 35.6 µM and 44.8 µM and 50.2 µM
CC-v2 (curve classes) (recombinant human AChE [2]): 4
Efficacy (recombinant human AChE [2]): 0

COP(=O)(OC)Oc1ccc([N+](=O)[O-])cc1 [Methylparaoxon]
CC-v2 (curve classes) (recombinant human AChE [1]): -2.1
Efficacy (recombinant human AChE [1]): -96.544
CC-v2 (curve classes) (AChE in SH-SY5Y cells): -1.1
CC-v2 (curve classes) (recombinant human AChE [2]): -1.1
Efficacy (recombinant human AChE [2]): -92.551

CN(C)c1ccc(C(=C2C=CC(=[N+](C)C)C=C2)c2ccc(N(C)C)cc2)cc1.[Cl-] [Methylrosaniline chloride]
CC-v2 (curve classes) (recombinant human AChE [1]): 4
Efficacy (recombinant human AChE [1]): 0
pIC50 (AChE in SH-SY5Y cells): 4.41
CC-v2 (curve classes) (recombinant human AChE [2]): -2.1
Efficacy (recombinant human AChE [2]): -113.882
pIC50 (recombinant human AChE [2]): 4.51

CC[C@@H](CO)NC(=O)[C@@H]1C=C2c3cccc4c3c(cn4C)C[C@H]2N(C)C1 [Methysergide]
CC-v2 (curve classes) (recombinant human AChE [1]): 4
Efficacy (recombinant human AChE [1]): -23.381
CC-v2 (curve classes) (AChE in SH-SY5Y cells): -1.1
IC50 (AChE in SH-SY5Y cells): 0.389 µM and 0.245 µM and 2.45 µM
CC-v2 (curve classes) (recombinant human AChE [2]): -1.1
Efficacy (recombinant human AChE [2]): -98.745
IC50 (recombinant human AChE [2]): 4.36 µM

CNC(=O)/C=C(\C)OP(=O)(OC)OC [Monocrotophos]
CC-v2 (curve classes) (recombinant human AChE [1]): 4
Efficacy (recombinant human AChE [1]): -13.186
CC-v2 (curve classes) (AChE in SH-SY5Y cells): -2.1
IC50 (AChE in SH-SY5Y cells): 39.9 µM and 35.6 µM
CC-v2 (curve classes) (recombinant human AChE [2]): -2.2
Efficacy (recombinant human AChE [2]): -46.284
IC50 (recombinant human AChE [2]): 63.3 µM

Cc1nccn1CC1CCc2c(c3ccccc3n2C)C1=O (stereo not shown) [Ondansetron]
CC-v2 (curve classes) (recombinant human AChE [1]): 4
Efficacy (recombinant human AChE [1]): 0
IC50 (AChE in SH-SY5Y cells): 30.9 µM and 34.7 µM and 38.9 µM
CC-v2 (curve classes) (recombinant human AChE [2]): 4
Efficacy (recombinant human AChE [2]): -23.749

CCOP(=O)(OCC)Oc1ccc([N+](=O)[O-])cc1 [Paraoxon]
CC-v2 (curve classes) (recombinant human AChE [1]): -1.1
CC-v2 (curve classes) (AChE in SH-SY5Y cells): -1.1
CC-v2 (curve classes) (recombinant human AChE [2]): -1.1

CCCCCC1Nc2cc(C(F)(F)F)c(S(N)(=O)=O)cc2S(=O)(=O)N1 (stereo not shown) [Penflutizide]
CC-v2 (curve classes) (recombinant human AChE [1]): 4
Efficacy (recombinant human AChE [1]): -21.532
CC-v2 (curve classes) (AChE in SH-SY5Y cells): -2.1
IC50 (AChE in SH-SY5Y cells): 15.5 µM and 13.8 µM
CC-v2 (curve classes) (recombinant human AChE [2]): -2.2
Efficacy (recombinant human AChE [2]): -58.761
IC50 (recombinant human AChE [2]): 21.9 µM

CCOP(=S)(OCC)SCSCC [Phorate]
CC-v2 (curve classes) (recombinant human AChE [1]): 4
Efficacy (recombinant human AChE [1]): 0
CC-v2 (curve classes) (AChE in SH-SY5Y cells): -2.1
IC50 (AChE in SH-SY5Y cells): 63.3 µM and 71 µM
CC-v2 (curve classes) (recombinant human AChE [2]): 4
Efficacy (recombinant human AChE [2]): -23.652

Nc1c(NC/C=C\COc2cc(CN3CCCCC3)ccn2)c(=O)c1=O [Pibutidine]
CC-v2 (curve classes) (recombinant human AChE [1]): 4
Efficacy (recombinant human AChE [1]): 0
CC-v2 (curve classes) (AChE in SH-SY5Y cells): -2.1
IC50 (AChE in SH-SY5Y cells): 13.5 µM and 15.1 µM
CC-v2 (curve classes) (recombinant human AChE [2]): -2.2
Efficacy (recombinant human AChE [2]): -32.846
IC50 (recombinant human AChE [2]): 15.1 µM

Cc1nc2ccccn2c(=O)c1CCN1CCC(C(=O)c2ccc(F)cc2)CC1 [Pirenperone]
CC-v2 (curve classes) (recombinant human AChE [1]): 4
Efficacy (recombinant human AChE [1]): 0
CC-v2 (curve classes) (AChE in SH-SY5Y cells): -2.1
IC50 (AChE in SH-SY5Y cells): 17.4 µM and 24.5 µM
CC-v2 (curve classes) (recombinant human AChE [2]): -2.4
Efficacy (recombinant human AChE [2]): -31.06
IC50 (recombinant human AChE [2]): 38.9 µM

O=S(=O)([O-])SSS(=O)(=O)[O-].[K+].[K+] [Potassium tetrathionate]
CC-v2 (curve classes) (recombinant human AChE [1]): -2.1
Efficacy (recombinant human AChE [1]): -82.524
pIC50 (recombinant human AChE [1]): 4.15
CC-v2 (curve classes) (AChE in SH-SY5Y cells): -2.1
pIC50 (AChE in SH-SY5Y cells): 4.15 and 4.10
CC-v2 (curve classes) (recombinant human AChE [2]): -2.2
Efficacy (recombinant human AChE [2]): -73.38
pIC50 (recombinant human AChE [2]): 4.15

CCCN[C@H]1CCc2nc(N)sc2C1 [Pramipexole dihydrochloride monohydrate]
CC-v2 (curve classes) (recombinant human AChE [1]): 4
Efficacy (recombinant human AChE [1]): -16.414
CC-v2 (curve classes) (AChE in SH-SY5Y cells): -2.1
CC-v2 (curve classes) (recombinant human AChE [2]): 4
Efficacy (recombinant human AChE [2]): -20.242

COc1cc2nc(N3CCN(C(=O)c4ccco4)CC3)nc(N)c2cc1OC [Prazosin]
Efficacy (recombinant human AChE [1]): 0
IC50 (AChE in SH-SY5Y cells): 15.1 µM and 16.9 µM and 9.52 µM
Efficacy (recombinant human AChE [2]): -14.406

CC(C)Nc1nc(Cl)nc(NC(C)C)n1 [Propazine]
CC-v2 (curve classes) (recombinant human AChE [1]): 4
Efficacy (recombinant human AChE [1]): 0
CC-v2 (curve classes) (AChE in SH-SY5Y cells): -2.1 and 4
IC50 (AChE in SH-SY5Y cells): 31.7 µM and 25.2 µM and 28.3 µM
CC-v2 (curve classes) (recombinant human AChE [2]): -2.2 and 4
IC50 (recombinant human AChE [2]): 71 µM

COCCCN1CCC(NC(=O)c2cc(Cl)c(N)c3c2OCC3)CC1 [Prucalopride]
CC-v2 (curve classes) (recombinant human AChE [1]): 4
Efficacy (recombinant human AChE [1]): 0
CC-v2 (curve classes) (AChE in SH-SY5Y cells): -2.1
IC50 (AChE in SH-SY5Y cells): 17.4 µM
CC-v2 (curve classes) (recombinant human AChE [2]): -2.4
Efficacy (recombinant human AChE [2]): -37.421
